Measured values as given in patent publication US9695205B2, “Amide compounds for treatment of complement mediated disorders” (Achillion Pharmaceuticals, Inc., priority 2014, dated 2017).

Target: Human factor D (Homo sapiens (Human), UniProt P00746)
Experiment: Human Factor D Assay
Format: biochemical
Conditions: Human factor D 80 nM, substrate Z-L-Lys-SBzl and DTNB 100 μM each, pH 7.5
Description: Example 14. Human Factor D Assay
Human factor D (purified from human serum, Complement Technology, Inc.) at 80 nM final concentration is incubated with test compound at various concentrations for 5 minutes at room temperature in 50 mM Tris, 1M NaCl, pH 7.5. A synthetic substrate Z-L-Lys-SBzl and DTNB (Ellman's reagent) are added to final concentrations of 100 μM each. The increase in color is recorded at OD405 nm in a microplate in kinetic mode over 30 minutes with 30 second time points in a spectrofluorimeter. IC50 values are calculated by non-linear regression from the percentage of inhibition of complement factor D activity as a function of test compound concentration.

Sequence of Human factor D (P00746 26-253): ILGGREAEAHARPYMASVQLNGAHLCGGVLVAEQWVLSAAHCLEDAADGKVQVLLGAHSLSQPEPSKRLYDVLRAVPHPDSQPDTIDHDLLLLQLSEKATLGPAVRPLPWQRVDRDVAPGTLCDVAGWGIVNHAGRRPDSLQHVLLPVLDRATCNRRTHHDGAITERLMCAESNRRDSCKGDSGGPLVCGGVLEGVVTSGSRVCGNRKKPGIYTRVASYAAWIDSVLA

SMILES | IC50 [µM]
CC(=O)c1cn(CC(=O)N2C[C@H](F)C[C@H]2C(=O)NCc2cccc(Cl)c2F)c2ccc(NC(=O)Nc3ccon3)cc12 [Compound 19, (2S,4R)-1-(2-(3-acetyl-5-(3-isoxazol-3-ylureido)-1H-indol-1-yl)acetyl)-N-(3-chloro-2-fluorobenzyl)-4-fluoropyrrolidine-2-carboxamide] | < 1
CC(=O)c1cn(CC(=O)N2C[C@H](F)C[C@H]2C(=O)NCc2cccc(Cl)c2F)c2cc(C(=O)N3CCC(CN)C3)ccc12 (stereo partly drawn) [Compound 42, (2S,4R)-1-(2-(3-acetyl-6-(3-(aminomethyl)pyrrolidine-1-carbonyl)-1H-indol-1-yl)acetyl)-N-(3-chloro-2-fluorobenzyl)-4-fluoropyrrolidine-2-carboxamide] | < 1
